Read-outs that look alike come from different tables or passages of the source.
Target: T1, mGluR2 receptor (metabotropic glutamate receptor 2) (Homo sapiens, UniProt Q14416)
T1 construct: expressed in transfected cells
Test: mGluR2 Potentiator Screen, FLIPR, EC10-EC20 glutamate challenge
Assay type: cell-based
Conditions: read-out: EC50
Outline: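 HEK cells stably co-expressing mGluR2 and Gα15, kept glutamine-free overnight, were loaded with Fluo-4 plus probenecid and GPT/pyruvate. Compounds (top 10 μM) were added ≥30 min before an EC10–EC20 glutamate challenge. Peak FLIPR fluorescence ratios were curve-fitted, excluding points above maximal effect, with maxima from on-plate standards.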

[1] = mGluR2 potentiator screen, Table 7

T1 sequence (Q14416 19-872, species assumed): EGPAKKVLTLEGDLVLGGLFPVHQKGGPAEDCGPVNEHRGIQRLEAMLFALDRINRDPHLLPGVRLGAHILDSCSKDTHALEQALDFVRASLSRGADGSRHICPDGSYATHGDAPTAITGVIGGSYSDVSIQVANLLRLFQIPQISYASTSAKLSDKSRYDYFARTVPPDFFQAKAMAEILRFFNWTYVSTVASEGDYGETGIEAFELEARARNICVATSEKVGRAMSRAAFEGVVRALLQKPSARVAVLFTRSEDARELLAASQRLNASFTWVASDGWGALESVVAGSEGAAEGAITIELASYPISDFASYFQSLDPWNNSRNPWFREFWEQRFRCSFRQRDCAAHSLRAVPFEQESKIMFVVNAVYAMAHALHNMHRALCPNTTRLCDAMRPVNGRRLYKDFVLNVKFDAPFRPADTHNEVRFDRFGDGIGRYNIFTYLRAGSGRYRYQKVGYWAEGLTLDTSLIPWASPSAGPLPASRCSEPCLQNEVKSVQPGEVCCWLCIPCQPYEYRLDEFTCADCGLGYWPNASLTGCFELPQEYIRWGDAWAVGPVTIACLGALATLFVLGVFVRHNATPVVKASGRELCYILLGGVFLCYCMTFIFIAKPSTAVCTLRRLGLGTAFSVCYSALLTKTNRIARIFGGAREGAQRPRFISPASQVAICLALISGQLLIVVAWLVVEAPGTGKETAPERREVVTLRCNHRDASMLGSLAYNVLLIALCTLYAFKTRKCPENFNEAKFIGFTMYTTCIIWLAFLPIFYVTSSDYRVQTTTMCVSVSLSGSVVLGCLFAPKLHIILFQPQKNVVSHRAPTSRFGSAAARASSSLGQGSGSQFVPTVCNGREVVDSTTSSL

Compound | EC50 [1] [µM] | EC50 [µM]
Cn1c(CN2CCC3(CC2)CN(CC(C)(C)C)c2ccccc23)nc2ccccc21 [compound 111] | – | 10.3
Cn1c(CN2CCC3(CC2)CN(Cc2cccnc2)c2ccccc23)nc2ccccc21 [compound 112] | – | > 9.88
CC(C)CN1CC2(CCN(Cc3nc4ccccc4n3C)CC2)c2cc(Cl)ccc21 [compound 113] | – | 4.37
CCN1CC2(CCN(Cc3nc4ccccc4n3C)CC2)c2cc(F)ccc21 [compound 114] | – | 2.38
CC(C)CN1CC2(CCN(Cc3nc4ccccc4n3C)CC2)c2cc(F)ccc21 [compound 115] | – | 6.49
CC(C)CCN1CC2(CCN(Cc3nc4ccccc4n3C)CC2)c2ccccc21 [compound 116] | – | 3.12
Cn1c(CN2CCC3(CC2)CN(CC2CCCO2)c2ccc(F)cc23)nc2ccccc21 (stereo not shown) [compound 117] | – | > 9.01
CCN1CC2(CCN(Cc3nc4ccccc4n3C)CC2)c2cc(C)ccc21 [compound 118] | – | 3.41
Cc1ccc2c(c1)C1(CCN(Cc3nc4ccccc4n3C)CC1)CN2CC(C)C [compound 119] | – | 2.9
Cc1ccc2c(c1)C1(CCN(Cc3nc4ccccc4n3C)CC1)CN2CCC(C)C [compound 120] | – | 2.7
Cc1cc(C)c2c(c1)C1(CCN(Cc3nc4ccccc4n3C)CC1)CN2CCC(C)C [compound 121] | – | 1.15
Cc1cc(C)c2c(c1)C1(CCN(Cc3nc4ccccc4n3C)CC1)CN2CC1CCCO1 (stereo not shown) [compound 123] | – | 5.03
Cc1ccc2c(c1)C1(CCN(Cc3nc4ccccc4n3C)CC1)CN2CC1CCCO1 (stereo not shown) [compound 124] | – | 4.11
Cc1cc(C)c2c(c1)C1(CCN(Cc3nc4ccccc4n3C)CC1)CN2CC(C)C [compound 125] | – | 3.93
CCC(CC)CN1CC2(CCN(Cc3nc4ccccc4n3C)CC2)c2cc(C)cc(C)c21 [compound 126] | – | 6.01
CCCCN1CC2(CCN(Cc3nc4ccccc4n3C)CC2)c2cc(Cl)ccc21 [compound 127] | – | 2.81
Cn1c(CN2CCC3(CC2)CNc2ccc(Cl)cc23)nc2ccccc21 [compound 128] | – | > 8.98
Cn1c(CN2CCC3(CC2)CN(CC2CC2)c2ccc(Cl)cc23)nc2ccccc21 [compound 129] | – | 2.51
CCCN1CC2(CCN(Cc3nc4ccccc4n3C)CC2)c2ccccc21 [compound 130] | – | 3.08
CN1CC2(CCN(Cc3nc4ccccc4n3C)CC2)c2cc(Cl)ccc21 [compound 131] | – | 1.76
CCCCN1CC2(CCN(Cc3nc4ccccc4n3C)CC2)c2ccccc21 [compound 132] | – | 1.34
CCC(C)CN1CC2(CCN(Cc3nc4ccccc4n3C)CC2)c2ccccc21 (stereo not shown) [compound 133] | – | 6.16
Cn1c(CN2CCC3(CC2)CN(CC2CC2)c2ccccc23)nc2ccccc21 [compound 134] | – | 7.38
CN1CC2(CCN(Cc3nc4ccccc4n3C)CC2)c2ccccc21 [compound 135] | – | 2.35
CN1CC2(CCN(Cc3nc4ccccc4n3C)CC2)c2cc(F)ccc21 [compound 136] | – | 2.65

Compound | EC50 [1] [µM] | EC50 [µM]
CCCN1CC2(CCN(Cc3nc4ccccc4n3C)CC2)c2cc(F)ccc21 [compound 137] | – | > 7.89
Cn1c(CN2CCC3(CC2)CN(CC2CC2)c2ccc(F)cc23)nc2ccccc21 [compound 138] | – | 8.59
CCCCN1CC2(CCN(Cc3nc4ccccc4n3C)CC2)c2cc(C)ccc21 [compound 139] | – | 1.97
CCCCN1CC2(CCN(Cc3nc4ccccc4n3C)CC2)c2cc(F)ccc21 [compound 140] | – | 2.12
CCC(C)CN1CC2(CCN(Cc3nc4ccccc4n3C)CC2)c2cc(C)ccc21 (stereo not shown) [compound 141] | – | 5.67
Cc1ccc2c(c1)C1(CCN(Cc3nc4ccccc4n3C)CC1)CN2CC1CC1 [compound 142] | – | 3.02
Cc1ccc2c(c1)C1(CCN(Cc3nc4ccccc4n3C)CC1)CN2 [compound 143] | – | > 8.67
CCCN1CC2(CCN(Cc3nc4ccccc4n3C)CC2)c2cc(C)ccc21 [compound 144] | – | 2.37
CCCN1CC2(CCN(Cc3nc4ccccc4n3C)CC2)c2cc(C)cc(C)c21 [compound 145] | – | 2.69
Cc1ccc2c(c1)C1(CCN(Cc3nc4ccccc4n3C)CC1)CN2C [compound 146] | – | 1.67
Cc1cc(C)c2c(c1)C1(CCN(Cc3nc4ccccc4n3C)CC1)CN2 [compound 147] | – | 5.81
CCC(C)CN1CC2(CCN(Cc3nc4ccccc4n3C)CC2)c2cc(C)cc(C)c21 (stereo not shown) [compound 148] | – | 4.73
CCCCN1CC2(CCN(Cc3nc4ccccc4n3C)CC2)c2cc(C)cc(C)c21 [compound 149] | 1.64 | –
COc1ccc(OC)c(C2CCN(Cc3nc4ccccc4n3C)C2)c1 (stereo not shown) [compound 154] | 0.285 | –
COC(=O)[C@H]1CN(Cc2nc3ccccc3n2C)C[C@@H]1c1ccc(Cl)cc1 [compound 156] | 8.55 | –
Cn1c(CN2CCC(c3ccccc3Cl)CC2)nc2ccccc21 [compound 161] | 0.144 | –
Cn1c(CN2CCC(c3ccc(C(F)(F)F)cc3)CC2)nc2c(Br)cccc21 [compound 164] | 0.838 | –
COc1ccc(OC)c(C2CCN(Cc3nc4c(Br)cccc4n3C)CC2)c1 [compound 165] | 2.66 | –
Cn1c(CN2CCC(c3cccc(C(F)(F)F)c3)C(O)C2)nc2ccccc21 (stereo not shown) [compound 167] | 4.38 | –
Cn1c(CN2CCC(c3cccc4ccc(C(N)=O)cc34)CC2)nc2c(Br)cccc21 [compound 170] | 8.09 | –
Cn1c(CN2CCC(c3cc(Cl)ccc3F)CC2)nc2ccccc21 [compound 172] | 0.00828 | –
CC[C@H](C)COc1ccc(Cl)cc1C1CCN(Cc2nc3ccccc3n2CCOC)CC1 [compound 176] | 1.34 | –
CCCCOc1ccc(Cl)cc1C1CCN(Cc2nc3ccccc3n2CF)CC1 [compound 182] | 0.355 | –
FCCn1c(CN2CCC(c3cc(Cl)ccc3OCC3CCC3)CC2)nc2ccccc21 [compound 195] | 1.39 | –
CC1CC1COc1ccc(Cl)cc1C1CCN(Cc2nc3ccccc3n2C2CC2)CC1 (stereo not shown) [compound 198] | 2.25 | –

More lines, main results first:

EC50 [1] [µM] | Compound | EC50 [µM]
4.1 | Cn1c(CN2CCC(c3ccccc3)C2)nc2ccccc21 (stereo not shown) [compound 151] | –
0.371 | Cn1c(CN2CCC(c3ccccc3Cl)C2)nc2ccccc21 (stereo not shown) [compound 152] | –
4.79 | COC(=O)[C@H]1CN(Cc2nc3ccccc3n2C)C[C@@H]1c1ccc(C(F)(F)F)cc1 [compound 153] | –
1.65 | Cn1c(CN2CCC(c3ccc(F)cc3)C2)nc2ccccc21 (stereo not shown) [compound 155] | –
0.836 | Cn1c(CN2CCC(c3ccccc3F)CC2)nc2c(Br)cccc21 [compound 157] | –
0.865 | Cn1c(CN2CCC(Cc3ccccc3)C2)nc2ccccc21 (stereo not shown) [compound 158] | –
0.862 | Cn1c(CN2CCC(c3ccccc3Cl)CC2)nc2c(Br)cccc21 [compound 160] | –
0.254 | Cn1c(CN2CCC(c3cccc(C(F)(F)F)c3)CC2)nc2ccccc21 [compound 162] | –
0.928 | COc1ccc(OC)c(C2CCN(Cc3nc4ccccc4n3C)CC2)c1 [compound 163] | –
0.0778 | Cn1c(CN2CCC(c3ccc(C(F)(F)F)cc3)CC2)nc2ccccc21 [compound 166] | –
1.2 | Cn1c(CN2CC[C@@H]3c4ccccc4CC[C@@H]3C2)nc2c(Br)cccc21 [compound 168] | –
1.23 | COc1ccccc1C1CCN(Cc2nc3c(Br)cccc3n2C)CC1 [compound 169] | –
7.55 | COc1cccc2c1CC[C@H]1CN(Cc3nc4ccccc4n3C)CC[C@H]21 [compound 171] | –
1.7 | CC[C@H](C)COc1ccc(Cl)cc1C1CCN(Cc2nc3ccccc3n2CCF)CC1 [compound 173] | –
0.447 | CC[C@H](C)COc1ccc(Cl)cc1C1CCN(Cc2nc3ccccc3n2C)CC1 [compound 174] | –
8.76 | CC[C@H](C)COc1ccc(Cl)cc1C1CCN(Cc2nc3ccccc3n2CF)CC1 [compound 175] | –
3.47 | CC(C)COc1ccc(Cl)cc1C1CCN(Cc2nc3ccccc3n2CF)CC1 [compound 177] | –
0.499 | CC(C)COc1ccc(Cl)cc1C1CCN(Cc2nc3ccccc3n2C)CC1 [compound 178] | –

EC50 [1] [µM] | Compound | EC50 [µM]
1.74 | CC(C)COc1ccc(Cl)cc1C1CCN(Cc2nc3ccccc3n2C2CC2)CC1 [compound 179] | –
3.02 | COCCn1c(CN2CCC(c3cc(Cl)ccc3OCC(C)C)CC2)nc2ccccc21 [compound 180] | –
2.11 | CC(C)COc1ccc(Cl)cc1C1CCN(Cc2nc3ccccc3n2CCF)CC1 [compound 181] | –
1.52 | CCCCOc1ccc(Cl)cc1C1CCN(Cc2nc3ccccc3n2C2CC2)CC1 [compound 183] | –
0.479 | CCCCOc1ccc(Cl)cc1C1CCN(Cc2nc3ccccc3n2CCOC)CC1 [compound 184] | –
0.138 | CCCCOc1ccc(Cl)cc1C1CCN(Cc2nc3ccccc3n2C)CC1 [compound 185] | –
0.246 | CCCCOc1ccc(Cl)cc1C1CCN(Cc2nc3ccccc3n2CCF)CC1 [compound 186] | –
0.777 | Clc1ccc(OCCC2CC2)c(C2CCN(Cc3nc4ccccc4n3C3CC3)CC2)c1 [compound 187] | –
0.566 | FCn1c(CN2CCC(c3cc(Cl)ccc3OCCC3CC3)CC2)nc2ccccc21 [compound 188] | –
0.153 | Cn1c(CN2CCC(c3cc(Cl)ccc3OCCC3CC3)CC2)nc2ccccc21 [compound 189] | –
0.141 | FCCn1c(CN2CCC(c3cc(Cl)ccc3OCCC3CC3)CC2)nc2ccccc21 [compound 190] | –
0.136 | COCCn1c(CN2CCC(c3cc(Cl)ccc3OCCC3CC3)CC2)nc2ccccc21 [compound 191] | –
2.26 | Clc1ccc(OCC2CCC2)c(C2CCN(Cc3nc4ccccc4n3C3CC3)CC2)c1 [compound 192] | –
2.34 | FCn1c(CN2CCC(c3cc(Cl)ccc3OCC3CCC3)CC2)nc2ccccc21 [compound 193] | –
0.473 | Cn1c(CN2CCC(c3cc(Cl)ccc3OCC3CCC3)CC2)nc2ccccc21 [compound 194] | –
0.719 | COCCn1c(CN2CCC(c3cc(Cl)ccc3OCC3CCC3)CC2)nc2ccccc21 [compound 196] | –
3.26 | CC1CC1COc1ccc(Cl)cc1C1CCN(Cc2nc3ccccc3n2CF)CC1 (stereo not shown) [compound 197] | –
